Fold induction data for 34 molecules are collected here from patent US20260232662A1, “MIR-124 INDUCER, AND PREPARATION METHOD THEREFOR AND USE THEREOF” (NANJING SYNNOCARE PHARMACEUTICAL TECHNOLOGY CO., LTD., priority 2023, published 2026).

The test system of this test is miR-124. Nature of the test: Induction of miR-124 expression in PBMC cells (qPCR). Particulars: Homo sapiens, 72 h, 0.1 μM compound, human PBMCs stimulated with PMA/ionomycin, miR-191 reference gene, read-out: miR-124 expression, Fold change vs DMSO. The test is classed as cell-based. Here is the method:
This study evaluated the ability of the compound of the present invention to influence miR-124 transcriptional activity in vitro. The experiment analyzed miR-124 expression in human PBMCs (Sailybio) using quantitative PCR (qPCR).
Thawed human PBMCs (1 mL) were added to 19 mL of culture medium (RPMI1640+10% hFBS+1‰ 2-mercaptoethanol) and the PBMCs were incubated in a cell culture incubator for 30 minutes. The PBMCs were collected and the cells (3.0*10^6 cells/well/3 mL) were resuspended in medium containing PMA (10 ng/mL; Invivogen) and ionomycin (200 ng/mL; Invivogen). The cells were incubated in a 6-well plate for 48 hours. Diluted compound was added to the cells to achieve a final concentration of 0.1 μM. After 72 hours, the samples were centrifuged and the cells were collected.
Total miRNA was extracted from the cells using the MiPure Cell/Tissue miRNA Kit (Vazyme) according to the manufacturer's instructions, followed by purification. The purified samples were treated with genomic DNA elimination buffer, and reverse transcription was performed using a GeneAmp PCR System. The resulting cDNA was subjected to quantitative real-time PCR (qPCR) analysis on a QuantStudio™ 7 Flex Real-Time PCR System. Data analysis was performed using the QuantStudio 7 software with default settings to automatically determine Ct values, and the results were exported. In this assay, miR-191 was used as the reference gene, and the DMSO-treated group served as the control. The relative expression of miR-124 was calculated using the following formula: […]

Turning to `FC(F)Oc1ccc(Nc2nc3cccc(Cl)c3n3ccnc23)cc1` [Compound B59, 9-chloro-N-(4-(difluoromethoxy)phenyl)imidazolo [1,2-a]quinoxalin-4-amine], the fold induction at 0.1 µM turned out to be 25.4.

Turning to `FS(F)(F)(F)(F)c1ccc(Nc2nc3cccc(Cl)c3n3ccnc23)cc1` [Compound B60, 9-chloro-N-(4-(thiopentafluoride)phenyl)imidazolo[1,2-a]quinoxalin-4-amine], the fold induction at 0.1 µM came to 24.8. The result for `CSc1ccc(Nc2nc3cccc(Cl)c3n3ccnc23)cc1` [Compound B61, 9-chloro-N-(4-(methylthio)phenyl) imidazolo [1,2-a]quinoxalin-4-amine] reads 19.9. As for `FC(F)(F)c1ccc(Nc2nc3cccc(Cl)c3n3ccnc23)nc1` [Compound B67, 9-chloro-N-(5-(trifluoromethyl)pyridin-2-yl) imidazolo [1,2-a]quinoxalin-4-amine], the fold induction at 0.1 µM is 23.4. Turning to `Fc1cccc2nc(Nc3ccc4c(c3)OC(F)(F)O4)c3nccn3c12` [Compound B75, 9-fluoro-N-(2,2-difluorobenzo[d] [1,3]dihydroxy-5-yl) imidazolo[1,2-a] quinoxalin-4-amine], the fold induction at 0.1 µM turned out to be 29.5. As to `Fc1cc(Nc2nc3cccc(F)c3n3ccnc23)ccc1OC(F)(F)F` [Compound B76, 9-fluoro-N-(3-fluoro-4-(trifluoromethoxy)phenyl) imidazolo[1,2-a] quinoxalin-4-amine], the fold induction at 0.1 µM is 18.5.

On to `Fc1cccc2nc(Nc3ccc(OC(F)(F)F)c(Cl)c3)c3nccn3c12` [Compound B77, 9-fluoro-N-(3-chloro-4-(trifluoromethoxy)phenyl) imidazolo[1,2-a]quinoxalin-4-amine], for which the fold induction at 0.1 µM is 23.1. As for `Fc1cccc2nc(Nc3ccc(C(F)(F)F)cc3)c3nccn3c12` [Compound B78, 9-fluoro-N-(4-(trifluoromethyl)phenyl) imidazolo[1,2-a] quinoxalin-4-amine], the figure is 14.9; as for `Fc1cc(Nc2nc3cccc(F)c3n3ccnc23)ccc1C(F)(F)F` [Compound B79, 9-fluoro-N-(3-fluoro-4-(trifluoromethyl)phenyl) imidazolo[1,2-a] quinoxalin-4-amine], 22.3; as for `Fc1cccc2nc(Nc3ccc(C(F)(F)F)c(Cl)c3)c3nccn3c12` [Compound B80, 9-fluoro-N-(3-chloro-4-(trifluoromethyl)phenyl) imidazolo[1,2-a] quinoxalin-4-amine], 17.2. As for `Fc1cc(Cl)cc2nc(Nc3ccc4c(c3)OC(F)(F)O4)c3nccn3c12` [Compound B87, 7-chloro-9-fluoro-N-(2,2-difluorobenzo[d] [1,3]dihydroxy-5-yl)imidazo[1,2-a] quinoxalin-4-amine], the figure is 15.8; as for `Fc1cc(Nc2nc3cc(Cl)cc(F)c3n3ccnc23)ccc1OC(F)(F)F` [Compound B88, 7-chloro-9-fluoro-N-(3-fluoro-4-(trifluoromethoxy)phenyl) imidazolo[1,2-a] quinoxalin-4-amine], 20.1; as for `Fc1cc(Cl)cc2nc(Nc3ccc(OC(F)(F)F)c(Cl)c3)c3nccn3c12` [Compound B89, 7-chloro-9-fluoro-N-(3-chloro-4-(trifluoromethoxy)phenyl) imidazolo[1,2-a] quinoxalin-4-amine], 22.3. The result for `Fc1cc(Cl)cc2nc(Nc3ccc(C(F)(F)F)cc3)c3nccn3c12` [Compound B90, 7-chloro-9-fluoro-N-(4-(trifluoromethyl)phenyl) imidazolo[1,2-a] quinoxalin-4-amine] reads 24.9; that for `Fc1cc(Nc2nc3cc(Cl)cc(F)c3n3ccnc23)ccc1C(F)(F)F` [Compound B91, 7-chloro-9-fluoro-N-(3-fluoro-4-(trifluoromethyl)phenyl) imidazolo[1,2-a] quinoxalin-4-amine], 25.7; that for `Fc1cc(Cl)cc2nc(Nc3ccc(C(F)(F)F)c(Cl)c3)c3nccn3c12` [Compound B92, 7-chloro-9-fluoro-N-(3-chloro-4-(trifluoromethyl)phenyl) imidazolo[1,2-a] quinoxalin-4-amine], 27.1. For the molecule `FC1(F)Oc2ccc(Nc3nc4cc(Cl)cc(Cl)c4n4ccnc34)cc2O1` [Compound B93, 7,9-dichloro-N-(2,2-difluorobenzo [d][1,3]dihydroxy-5-yl) imidazolo[1,2-a] quinoxalin-4-amine], the fold induction at 0.1 µM is 19.1. The result for `Fc1cc(Nc2nc3cc(Cl)cc(Cl)c3n3ccnc23)ccc1OC(F)(F)F` [Compound B94, 7,9-dichloro-N-(3-fluoro-4-(trifluoromethoxy)phenyl) imidazolo[1,2-a] quinoxalin-4-amine] reads 26.4. For `FC(F)(F)Oc1ccc(Nc2nc3cc(Cl)cc(Cl)c3n3ccnc23)cc1Cl` [Compound B95, 7,9-dichloro-N-(3-chloro-4-(trifluoromethoxy)phenyl) imidazolo[1,2-a] quinoxalin-4-amine], the fold induction at 0.1 µM is 24.8.

On to `FC(F)(F)c1ccc(Nc2nc3cc(Cl)cc(Cl)c3n3ccnc23)cc1` [Compound B96, 7,9-dichloro-N-(4-(trifluoromethyl)phenyl) imidazolo[1,2-a] quinoxalin-4-amine], for which the fold induction at 0.1 µM was found to be 23.2.

In the case of `FC(F)(F)c1ccc(Nc2nc3cc(Cl)cc(Cl)c3n3ccnc23)cc1Cl` [Compound B98, 7,9-dichloro-N-(3-chloro-4-(trifluoromethyl)phenyl) imidazolo[1,2-a] quinoxalin-4-amine], the fold induction at 0.1 µM amounted to 22.9. As for `FC(F)(F)Sc1ccc(Nc2nc3cc(Cl)cc(Cl)c3n3ccnc23)cc1` [Compound B99, 7,9-dichloro-N-(4-(trifluoromethylthio)phenyl) imidazolo[1,2-a] quinoxalin-4-amine], the fold induction at 0.1 µM came to 17.6.

For `FC1(F)Oc2ccc(Nc3nc4ccc(Cl)cc4n4ccnc34)cc2O1` [Compound B100, 8-chloro-N-(2,2-difluorobenzo [d][1,3]dihydroxy-5-yl) imidazolo[1,2-a] quinoxalin-4-amine], the fold induction at 0.1 µM was 19.6. As to `Fc1cc(Nc2nc3ccc(Cl)cc3n3ccnc23)ccc1OC(F)(F)F` [Compound B101, 8-chloro-N-(3-fluoro-4-(trifluoromethoxy)phenyl) imidazolo[1,2-a] quinoxalin-4-amine], the fold induction at 0.1 µM was 24.7. As for `FC(F)(F)Oc1ccc(Nc2nc3ccc(Cl)cc3n3ccnc23)cc1Cl` [Compound B102, 8-chloro-N-(3-chloro-4-(trifluoromethoxy)phenyl) imidazolo[1,2-a] quinoxalin-4-amine], the figure is 27.3. Turning to `FC(F)(F)c1ccc(Nc2nc3ccc(Cl)cc3n3ccnc23)cc1` [Compound B103, 8-chloro-N-(4-(trifluoromethyl)phenyl) imidazolo[1,2-a] quinoxalin-4-amine], the fold induction at 0.1 µM came to 25.5. `Fc1cc(Nc2nc3ccc(Cl)cc3n3ccnc23)ccc1C(F)(F)F` [Compound B104, 8-chloro-N-(3-fluoro-4-(trifluoromethyl)phenyl) imidazolo[1,2-a] quinoxalin-4-amine]: the fold induction at 0.1 µM was found to be 28.1. As for `FC(F)(F)c1ccc(Nc2nc3ccc(Cl)cc3n3ccnc23)cc1Cl` [Compound B105, 8-chloro-N-(3-chloro-4-(trifluoromethyl)phenyl) imidazolo[1,2-a] quinoxalin-4-amine], the figure is 27.8; as for `FC1(F)Oc2ccc(Nc3nc4cc(Cl)ccc4n4ccnc34)cc2O1` [Compound B106, 7-chloro-N-(2,2-difluorobenzo[d] [1,3]dihydroxy-5-yl) imidazolo[1,2-a] quinoxalin-4-amine], 16.3; as for `Fc1cc(Nc2nc3cc(Cl)ccc3n3ccnc23)ccc1OC(F)(F)F` [Compound B107, 7-chloro-N-(3-fluoro-4-(trifluoromethoxy)phenyl) imidazolo[1,2-a] quinoxalin-4-amine], 24.4.

Take `FC(F)(F)c1ccc(Nc2nc3cc(Cl)ccc3n3ccnc23)cc1` [Compound B109, 7-chloro-N-(4-(trifluoromethyl)phenyl) imidazolo[1,2-a] quinoxalin-4-amine]: the fold induction at 0.1 µM worked out at 26.4. As for `Fc1cc(Nc2nc3cc(Cl)ccc3n3ccnc23)ccc1C(F)(F)F` [Compound B110, 7-chloro-N-(3-fluoro-4-(trifluoromethyl)phenyl) imidazolo[1,2-a] quinoxalin-4-amine], the fold induction at 0.1 µM was 25.5.

For the molecule `FC(F)(F)c1ccc(Nc2nc3cc(Cl)ccc3n3ccnc23)cc1Cl` [Compound B111, 7-chloro-N-(3-chloro-4-(trifluoromethyl)phenyl) imidazolo[1,2-a] quinoxalin-4-amine], the fold induction at 0.1 µM was found to be 22.5. As to `Fc1cc(NC2=Nc3cccc(Cl)c3N3CCN=C23)ccc1OC(F)(F)F` [Compound B119, 9-chloro-N-(3-fluoro-4-(trifluoromethoxy)phenyl)-1,2-dihydroimidazo[1,2-a] quinoxalin-4-amine], the fold induction at 0.1 µM is 25.4.
